Reference: ChEMBL document CHEMBL1157539, “Thousands of chemical starting points for antimalarial lead identification” (Nature, 2010)

tested on: Plasmodium falciparum; assay: GSK_TCMDC: Inhibition of Plasmodium falciparum 3D7 in whole erythrocytes, using parasite LDH activity as an index of growth.; type: functional, organism-based; conditions: not given

Row | SMILES | XC50 [nM]
1 | O=C(C=Cc1ccc(F)c(Br)c1)NC1CCC(CN2CCC(c3c[nH]c4ccccc34)CC2)CC1 (configuration not stated) | 842

same assay, conditions: Plasmodium falciparum, 3D7

Row | SMILES | XC50 [nM]
2 | CN1CCCC1CCNCc1cccc(-c2cnc(N3CCCC(C)(C)C3)nc2)c1 (configuration not stated) | 927
3 | O=C(NCCCN1CCOCC1)c1csc(Nc2ccc(Cl)c(Cl)c2)n1 | 919
4 | CSC1=NC(=Nc2c(C)cccc2C)C2(CCC(C(C)(C)C)CC2)N1c1ccc(O)cc1 (configuration not stated) | 250
5 | Oc1c(CN2CCCC(C(F)(F)F)C2)cc(Cl)c2ccccc12 (configuration not stated) | 1570
6 | CC(CN(C)C)Oc1ccc2nc(-c3cccc(OCc4ccccc4)c3)[nH]c2c1C#N (configuration not stated) | 407
7 | Nc1ncc(-c2cccc(CCN3CCOCC3)c2)cc1-c1nc2cc(Br)ccc2[nH]1 | 277
8 | CN(C)c1ccc(-c2ccc(C(=O)NC3CCN(Cc4ccccc4F)CC3)s2)cc1 | 1400
9 | CN(Cc1ccccc1)C1CCN(c2cc(NC(=O)c3cccc(F)c3)ccn2)CC1 | 1510
10 | COc1ccc2nccc([C@@H](O)CN3CCC(NC(=O)Cc4ccc(Br)c5ccccc45)CC3)c2c1 | 820
11 | CCc1cn2c3c(cc(C(=O)N[C@@H](Cc4ccccc4)[C@H](O)CNC(C)(C)CCCC(C)C)cc13)N(C)S(=O)(=O)C2 | 240
12 | CC(C)C[C@H](NC(=O)c1ccc(OCCN2CCOCC2)cc1)C(=O)N[C@H](/C=N/N1CCN(C)C1=O)CCc1ccccc1 | 294
13 | CCCN1CCC2(CC1)NC(C(=O)NCCC(C)C)Cc1c2[nH]c2cc(Cl)ccc12 (configuration not stated) | 1380
14 | CCOc1cc(Cc2cnc(N)nc2N)cc(Br)c1OC | 1440
15 | CCCCCCn1c(Sc2ccc(C#N)c([N+](=O)[O-])c2)nnc1-c1cc(OC)cc(OC)c1 | 771
16 | CC12CN3CC(C)(CN(C1)C3c1cc(Br)ccc1O)C2O (configuration not stated) | 228
17 | c1cc(CN2CCCCC2)cc(-c2ccc(-c3nc4ccccc4[nH]3)cc2)c1 | 889
18 | COc1ccc(C2CC(=O)C3=C(C2)NC(C)=C(C(=O)OC(C)C)C3c2c(F)cccc2Cl)cc1OC (configuration not stated) | 824
19 | COc1ccc(S(=O)(=O)NCC2CCCN(CCCCCNC(=O)/C=C/c3ccc(Cl)c(Cl)c3)C2)cc1 (configuration not stated) | 1060
20 | Cc1ccc(-c2cc(C(=O)Nc3ccc(S(=O)(=O)N4CCCC(C)C4)cc3)[nH]n2)c(O)c1 (configuration not stated) | 280
21 | CN1CCN(CCCN(Cc2ccc(-c3ccc(CNCCc4ccccc4)cc3)cc2)C(=O)c2cccs2)CC1 | 1430
22 | COCCNCc1ccc(-c2cccc(CN(C(=O)NCCc3ccccc3)C3CCN(Cc4ccccc4)CC3)c2)cc1 | 918
23 | O=C(NC1CCN(c2ccc(F)cc2[N+](=O)[O-])CC1)c1cccs1 | 675
24 | CNCCNCc1cccc(-c2ccc(-c3nc4cccc(C)c4[nH]3)cc2)c1 | 798
25 | CC1(C)CN(CCC2CCC(NC(=O)/C=C/c3ccc(F)cc3F)CC2)Cc2ccc(C#N)cc21 (configuration not stated) | 787

Row | SMILES | XC50 [nM]
26 | CNC(=O)C(C)N(c1ccc(Cl)cc1)c1nc(C(C)(C)C)cs1 (configuration not stated) | 741
27 | CN1CCN(CC(=O)Nc2ccc(-c3ccc(-c4nc5ccccc5[nH]4)s3)cc2)CC1 | 299
28 | O=C(Nc1ccc(Cn2ncc(N3CCCNCC3)c(Cl)c2=O)cc1)Nc1ccc(-c2ccccc2)cc1 | 797
29 | CN(C)c1cccc(CN2CC=C(c3c[nH]c4ccc(Cl)cc34)CC2)c1 | 663
30 | COc1ccc2nccc([C@@H](O)CN3CCC(NCc4ccc5nsnc5c4)CC3)c2c1 | 958
31 | O=C(NCc1cccc(F)c1)Nc1cccc(-c2ccc(-c3nc4cc(F)ccc4[nH]3)cc2)c1 | 1050
32 | COc1ccc(-c2ccc(NC(=O)c3ccc(C#N)cc3)cc2)cc1CN(C)CCN(C)C | 663
33 | COc1cc(CCNC(=O)Cc2ccc3ccccc3c2)ccc1OCc1ccccc1 | 1020
34 | COc1cccc(CCc2cccc(CNC(C)=O)c2)c1 | 1040
35 | CC(C)N(C)C(=O)n1cnc(S(=O)(=O)C2CC3CCC2C3)n1 (configuration not stated) | 57
36 | CC(C)CC(C)NC(=O)C1Cc2c([nH]c3cc(Cl)ccc23)C2(CCN(CCc3ccccc3)CC2)N1 (configuration not stated) | 815
37 | COc1cc(Nc2nccc(N3CCC(NC(=O)c4cc5ccccc5s4)C3)n2)cc(OC)c1OC (configuration not stated) | 786
38 | O=C(NCc1cccs1)[C@H](Cc1ccccc1)Nc1ccnc(NCCc2ccc(F)cc2)n1 | 1450
39 | O=c1cnc2ccc(F)cc2n1CCN1CCC(NCc2cc(-c3ccccc3)cs2)CC1 | 863
40 | Cc1cc(N2CCOCC2)nc2ccc(NC(=O)c3ccc(Cl)c([N+](=O)[O-])c3)cc12 | 1030
41 | O=C(Nc1cccc(-c2ccc(-c3nc4cc(C(F)(F)F)ccc4[nH]3)cc2)c1)Nc1ccc(Cl)c(Cl)c1 | 889
42 | CN1CC=C(c2c[nH]c3ccc(Oc4ccccc4)cc23)CC1 | 253
43 | Cc1ccc(C2(O)CC3CCC(C2)N3C)cc1 (configuration not stated) | 611
44 | CC(O)C1CCCCN1C(=O)c1cccc(-c2ccc(-c3nc4cc(C(F)(F)F)ccc4[nH]3)cc2)c1 (configuration not stated) | 690
45 | CC(C)CNCc1cccc(-c2cccc(CN(CCCN3CCN(C)CC3)C(=O)Nc3ccccc3)c2)c1 | 1150
46 | O=C(C=Cc1ccc(F)c(Br)c1)NC1CCC(CN2CCC(c3c[nH]c4ccccc34)CC2)CC1 (configuration not stated) | 789
47 | O=C(/C=C/c1ccc(Cl)c(Cl)c1)NCCCCCN1CCC(NS(=O)(=O)c2cc(Cl)cc(Cl)c2)CC1 | 1240
48 | CN1CCN(CC(=O)Nc2ccc(-c3cccc(-c4nc5cc(F)ccc5[nH]4)c3)cc2)CC1 | 832
49 | Cc1cccc2nc(-c3ccc(-c4cccc(NC(=O)NCc5cccc(F)c5)c4)cc3)[nH]c12 | 853

Row | SMILES | XC50 [nM]
50 | CC12CCC(=O)N1C(C(=O)Nc1cccc(C(=O)Nc3cccc(C(F)(F)F)c3)c1)CS2 (configuration not stated) | 358
51 | CN1C(=O)C(=NN=C(S)N2CCOCC2)c2ccccc21 | 901
52 | O=C(/C=C/c1ccc(Cl)c(Cl)c1)NCCCCCN1CCC(CCCNC(=O)Nc2ccc(C(F)(F)F)cc2)CC1 | 872
53 | O=C(Nc1ccc(CCN2CCC(c3nc(COCC(F)(F)F)c(-c4ccccc4)o3)CC2)cc1)c1ccc(F)cc1 | 1970
54 | Oc1ccc(CCNc2nc(N/N=C/c3ccc(Cl)cc3)nc(N3CCNCC3)n2)cc1 | 583
55 | O=C(Nc1cccc(CN2CCCN(Cc3cccc(O)c3)CC2)c1)c1ccc(Cl)c(Cl)c1 | 664
56 | CCN(CC)CCOc1cc2c(cc1Br)-c1cc(Br)c(OCCN(CC)CC)cc1C2=NO | 1090
57 | COc1ccc(Oc2ccccc2CNCC2CCN(CC3CCCCC3)CC2)cc1 | 904
58 | COc1ccc(-c2cccc(NC(=O)c3cccc(C#N)c3)c2)cc1CN1CCCC1 | 748
59 | CC(C)[C@@H](C(=O)NCc1cccc(C(F)(F)F)c1)N1C(=O)CCC1C(=O)Nc1ccc([N+](=O)[O-])cc1 (some centres not stated) | 934
60 | CCOc1ccc(Br)cc1/C=C/C(=O)Nc1ccc2c(c1)CN(C)CCC2 | 824
61 | CCN(CC)/C(=N\C(=N)NCCCCCCNC(=N)/N=C(\Nc1ccc(Cl)cc1)N(CC)CC)Nc1ccc(Cl)cc1 | 927
62 | CCCCCCNc1cc(C)nc(NC(=N)Nc2cccc(C(F)(F)F)c2)n1 | 739
63 | Cc1ccc(C)c(N2CCN(Cc3ccccc3O)CC2)c1 | 940
64 | CCOc1ccc2c(=NN=Cc3ccccc3F)cc(C)[nH]c2c1 | 676
65 | Cc1ccc(N2C(N)=NC(N)=NC2(C)C)cc1 | 36.6
66 | CCCCC(O)c1cc(O)c2c(c1)OC(C)(C)CC2C1=CCN(Cc2ccc3ccccc3c2)CC1 (configuration not stated) | 970
67 | CC(C)C(=O)Nc1c(F)cc(F)cc1CCc1ccc(O)cc1 | 504
68 | CNCCCn1c(N(C)C)nc2cc(-n3cnc4cc(-c5ccc(Cl)cc5)sc4c3=O)ccc21 | 1140
69 | Cc1cc(N[C@@H](CC(C)C)C(=O)NCCc2ccccc2)nc(NCCc2cccs2)n1 | 1200
70 | CCN1CCN(c2cc(C)c3cc(NC(=O)c4cccc(C(F)(F)F)c4)ccc3n2)CC1 | 568
71 | NC1=NC(c2ccccc2)(c2ccccc2)C(=O)N1CC1CCC1 | 753
72 | O=C(NC1CCC(CN2CCC(c3c[nH]c4ccccc34)CC2)CC1)c1cc(-c2ccccc2Cl)oc1C(F)(F)F (configuration not stated) | 771
73 | COc1ccc2[nH]ccc(=NN=CC=Cc3ccccc3)c2c1 | 743

Row | SMILES | XC50 [nM]
74 | Cc1noc(C)c1-c1cccc(CNCc2cccc(-c3csc(-c4nc5ccccc5[nH]4)c3)c2)c1 | 263
75 | Oc1ccc(CCNCCCCCCNCCc2ccc(-c3ccccc3)cc2)cc1O | 603
76 | CCCCCC(C)C(C)c1cc(O)c2c(c1)OC(C)(C)C=C2c1cc[n+]([O-])cc1 (configuration not stated) | 1190
77 | Cc1onc(-c2ccc(Cl)cc2)c1-c1ccnn1S(=O)(=O)c1ccc(Cl)cc1 | 711
78 | CC(=O)Nc1ccc(C(=O)NC2CCN(c3ccnc4cc(Cl)ccc34)C2)cc1 (configuration not stated) | 806
79 | O=C(NCCCCCN1CCC(c2c[nH]c3ccccc23)CC1)Nc1ccc(Cl)cc1Cl | 716
80 | CC1(C)NC(N)=NC(=N)N1OCc1nc(N)nc(Nc2ccccc2)n1 | 274
81 | Cc1cccc(C)c1CNc1cccc(-c2nc(C)c(C)[nH]2)c1 | 883
82 | O=c1cc(NCCCNCc2cc(C(F)(F)F)ccc2Cl)[nH]c2ccccc12 | 1020
83 | CCN(c1ccccc1)S(=O)(=O)c1ccc(OC)c(NC(=O)c2cccc(C(F)(F)F)c2)c1 | 881
84 | CC(C)N1CCC(N(Cc2ccc(-c3ccc(C(F)(F)F)cc3)cc2)C(=O)Cn2c(CCc3cccc(F)c3F)cc(=O)c3ccccc32)CC1 | 850
85 | CS(=O)(=O)c1ccc(CNCc2cccc(-c3cccc(-c4nc5cc(F)ccc5[nH]4)c3)c2)cc1 | 559
86 | O=C(/C=C/c1ccc(Cl)c(Cl)c1)NCCCCCN1CCCN(C(=O)Nc2ccc([N+](=O)[O-])cc2)CC1 | 615
87 | CC1(CCc2ccccc2)N=C(Nc2ccc(Cl)cc2)N=C(N)C1c1ccc(Cl)c(Cl)c1 (configuration not stated) | 221
88 | Cc1ccc(CN(Cc2ccc(C(=O)N(C)C)cc2)Cc2ccc3c(c2)OCCO3)cc1C | 804
89 | CC=Cc1cc(Cc2c[nH]c(=N)[nH]c2=N)cc(CCC)c1OC | 783
90 | O=C(/C=C/c1ccc(Cl)cc1Cl)NC1CCC(CN2CCC(c3c[nH]c4ccccc34)CC2)CC1 (configuration not stated) | 798
91 | COc1ccc2ccccc2c1CON1C(=N)N=C(N)NC1(C)C | 28.8
92 | CCCCCCCN(CCCCCCC)CCCC(=O)Nc1ccnc2ccc(OC)cc12 | 154
93 | CN(C)c1cc(C(=O)N[C@@H](Cc2ccccc2)[C@H](O)CNC2CCCCC2)cc2[nH]ccc12 | 1070
94 | COc1ccccc1N1CCN(C(C(=O)NCc2ccc3c(c2)OCO3)c2ccc3c(c2)OCCCO3)CC1 (configuration not stated) | 1120
95 | COc1cc(C2=NN(S(=O)(=O)c3c(C)cc(C)cc3C)CCCC2)ccc1Cl | 775
96 | CCNc1cc(C(=O)N[C@@H](Cc2ccccc2)[C@H](O)CNC(CC)c2cccc(Cl)c2)cc(N2CCCC2=O)c1 (some centres not stated) | 31.6
97 | CCCc1cn2c3c(cc(C(=O)N[C@@H](Cc4ccccc4)[C@H](O)CNC4CCCCC4)cc13)N(CC)S(=O)(=O)CC2 | 80.6
